In one assay the test system is apelin expression. Description: Apelin expression in rat cardiac myocytes under cobalt chloride (hypoxia mimic), PCR. The assay is classed as cell-based. As for the experimental part:
Because HIF-1α consensus sites are present in the apelin regulatory region, experiments were conducted to determine whether apelin expression is hypoxia responsive and regulated by HIF-1α. Upregulation of apelin expression under hypoxic conditions would be consistent with a role for apelin in promotion of tumor angiogenesis. Preliminary experiments were carried out using primary rat cardiomyocyte cells in culture and treatment with cobalt chloride. This procedure is accepted as an equivalent to culturing cells under hypoxic conditions because HIF-1α is a metal responsive transcription protein (Ladoux and Frelin, 1994; Piret et al., 2002; Maxwell and Salnikow, 2004). Fetal rat cardiac myocytes were plated and cultured in DMEM (Invitrogen, Carlsbad, Calif.) supplemented with 10% fetal calf serum and penicillin/streptomyocin at 37° C. After four days of culture, medium was removed, and cells were treated with fresh media containing 150 μM Cobalt Chloride (Piret et al., 2002). […] After 4 hours of culture, cells were harvested, and total RNA was extracted using the Trizol procedure according to the manufacturers recommendations (Invitrogen, Carlsbad, Calif.).
Following PCR, amplification products were fractionated on an agarose gel and visualized using ethidium bromide staining under ultraviolet light (FIG. 12). […]

Assay [1] relates to BAE/APJ#2 cells (bovine aortic endothelial cells expressing mouse APJ). Description: BAE/APJ#2 endothelial cell proliferation (BrdU incorporation). The assay is classed as cell-based. The following applies: SU1498 10 ng/ml. As for the experimental part:
SU1498 was included in proliferation cultures at a concentration of 10 ng/ml and results were assayed using BrdU incorporation. After growth factor incubation, BrdU was added to each well at a final concentration of 10 μM for 2 hours, cells were washed, and fixed for BrdU immunocytochemistry.
Cells were fixed in 100% ice cold methanol at 4° C. for 2 hours to overnight. Prior to staining, cells were air dried and rehydrated for 3 minutes with PBS buffer. DNA was denatured at 37° C. with 2 M HCl, and neutralized with 2 washes for 5 minutes in 0.1 M borate buffer (pH 8.5). […] FITC-labeled anti-BrdU antibody (5 μg/ml) in block was added for 1 hour at room temperature. Cells were counterstained with propidium iodide following several washes in PBS buffer. For each experiment, 4 random fields were photographed for determination of percentage BrdU labeling.

In assay [2] the test system is mouse endothelial cells (bEnd3). In words: bEnd3 endothelial cell proliferation (BrdU incorporation). The assay is classed as cell-based. The method, then: Similar cellular proliferation assays were performed using mouse endothelial cells (bEnd3) that constitutively express APJ. […] SU1498 was included in proliferation cultures at a 25 μM concentration, and results were assayed using BrdU incorporation.
Proliferation inhibition experiments with the bEnd3 cells also were carried out using FGF (50 ng/ml) or the FGF pathway inhibitor SU5402 (FIG. 19). SU5402 was included in proliferation cultures at a 20 μM concentration, and results were assayed using BrdU incorporation.
(In general: Uptake of a labelled nucleoside into DNA is a usual measure of proliferation.)

Another assay deals with BAE/APJ#2 cells. The conditions noted are these: 10 ng/ml in bottom chamber, 16 hours. As for the experimental part:
Bovine aortic endothelial cells (BAE) were cultured in DMEM supplemented with 10% fetal bovine serum (FBS) and penicillin/streptomycin. For generation of stable cell lines expressing APJ, the mouse APJ coding region was cloned into the pcDNA 3.1 vector downstream of the CMV promoter, in frame with a myc epitope at the C-terminal end of the protein, and upstream of the neomycin gene. Bovine aortic endothelial (BAE) cells were transfected with this construction using the Superfect transfection kit (Qiagen) and selected for resistance to G418 (600 μg/ml). Colonies were isolated and screened using RT-PCR for expression of mouse APJ and also by immunocytochemistry for expression of the myc epitope.
Cell migration assays were performed using Transwell cell culture migration chambers (Becton Dickinson) with 8 micron pore size. BAE/APJ#2 cells were plated in serum free conditions in 100 μl at a concentration of 1×10^5 ml in the upper chamber of the migration chamber. Following cell attachment to the membrane, 10 ng/ml of growth factor was added to the bottom chamber, in a total volume of 0.5 ml. […] Cells attached to the membrane in the lower chamber were stained with DAPI, and 3 random fields were counted for each experimental condition.

A further assay has as its system lymphatic vessels. Description: In vivo lymphatic vessel branching assay, quail CAM. The conditions noted are these: collagen disk with 50 ng apelin or 100 ng VEGF-C on CAM of 7 day quail embryos, 18 hours. The method, then: (§1) All experiments were carried out using chorioallantoic membranes (CAMs) of quail embryos. Quail embryos used for the lymphatic experiments were 7 days old. Collagen purified from rat tails (Bernanke and Markwald, 1982) was polymerized in 2 mm disks at a final concentration of approximately 1.6 mg/ml in standard phosphate buffered saline (PBS). The total volume of the collagen disk was approximately 10 μl. For experimental treatments, the collagen disks were supplemented with either 50 ng of apelin peptide or 100 ng of VEGF-C protein prior to polymerization at 37° C. for 30 minutes. The VEGF-C was a positive control for these experiments. (Recombinant Human VEGF-C (Cys156Ser), R&D Systems, cat # 752-vc). Apelin peptide was synthesized by Sigma-Genosys (>90% purity).
For lymphangiogenesis assays, the CAMs of 7 day quail embryos were exposed, in ovo, and the collagen disks were placed directly onto the surface of the CAM. […]
(§2) The samples were incubated with primary antibody (Prox1, Research Diagnostics, cat # RDI-102PA30, diluted to 2 μg/ml final concentration) for 4 hours at room temperature or overnight at 4° C. […] Both the lymphatic cell number as well as the number of lymphatic branches were determined.
Both blood vessels and lymphatic vessels were stained with the QH-1 antibody. […] The number of lymphatic vessels branching away from blood vessels (towards the collagen disk) were counted. […]

Assay [3] concerns lymphatic endothelial cells. In words: In vivo lymphatic cell number assay, quail CAM (Prox1 staining). The conditions noted are these: collagen disk with 50 ng apelin or 100 ng VEGF-C on CAM of 7 day quail embryos, 18 hours. As for the experimental part:
as §1, with “purity). […]” for “purity).”
as §2
Assays for lymphatic cell number were carried out in areas of the CAM that were close to the location of the collagen disk as described above. Since Prox1 specifically stains lymphatic endothelial cell nuclei, the number of cells in the lymphatic branches was counted directly. […]

`[Cl][Co][Cl]` [Cobalt Chloride]: the apelin expression entry in the assay with apelin expression (150 μM Cobalt Chloride, 4 hours, fetal rat cardiac myocytes) is on record as “significantly increased”; in the assay on apelin expression (Cobalt chloride 30 μg/ml, rat cardiac myocytes) it was “induced”.

Take `CC(C)c1cc(/C=C(\C#N)C(=O)NCCCc2ccccc2)cc(C(C)C)c1O` [SU1498]: the “effect on VEGF-mediated proliferation” value in assay [1] (VEGF 10 ng/ml) is given as “partially inhibits VEGF-mediated proliferation”; in assay [2] (SU1498 25 μM, VEGF 50 ng/ml), “partially inhibits VEGF-mediated proliferation”. The “effect on apelin-mediated proliferation” value in assay [1] (apelin 10 ng/ml) is listed as “no significant effect on apelin-mediated proliferation”; in assay [2] (SU1498 25 μM, apelin 10 ng/ml) it was “no significant effect on apelin-mediated proliferation”.

As to `Cc1c[nH]c(/C=C2\C(=O)Nc3ccccc32)c1CCC(=O)O` [SU5402], the “effect on FGF-mediated proliferation” value in assay [2] (SU5402 20 μM, FGF 50 ng/ml) was “partially inhibited the proliferative effect of FGF”. Also, the “effect on apelin-stimulated cellular proliferation” value in assay [2] (SU5402 20 μM, apelin 10 ng/ml) is on record as “did not have a significant effect on apelin-stimulated cellular proliferation”.

Consider VEGF, for which the “endothelial cell migration (cells per field)” value with BAE/APJ#2 cells was “increase in migration”. For the same molecule, the “cellular proliferation of endothelial cells” value in assay [2] (apelin 10 ng/ml or VEGF 50 ng/ml, 0.1 ng/ml to 1 μg/ml (FIG. 17)) is given as “proliferate upon the addition of VEGF or apelin”.

B1: VEGF-C: Recombinant Human VEGF-C (Cys156Ser), R&D Systems; positive control for lymphangiogenesis (protein, UniProt P49767 112-227, looked up, variant C156S)
Vascular endothelial growth …: AHYNTEILKSIDNEWRKTQCMPREVCIDVGKEFGVATNTFFKPPSVSVYRCGGCCNSEGLQCMNTSTSYLSKTLFEITVPLSQGPKPVTISFANHTSCRCMSKLDVYRQVHSIIRR
B1: in the assay with lymphatic vessels, the “number of lymphatic vessels branching away from blood vessels” value is “positive regulator of lymphatic branching angiogenesis”. For the same molecule, the “lymphatic cell number (Prox1 positive nuclei)” value in assay [3] is listed as “mitogenic factor for lymphatic endothelial cells”.

The values above are taken from patent US20060159676A1, “Methods for modulating angiogenesis, lymphangiogenesis, and apoptosis with apelin compositions” (priority 2005, published 2006).
